Results from ChEMBL document CHEMBL1156829 (Proc Natl Acad Sci U S A, 2008).
“And” between values parts separate entries of the source, which are not always exact repeats. Identical values can stand only once.

Experiments:
Plasmodium falciparum [1] = assay: NOVARTIS: Inhibition of Plasmodium falciparum 3D7 (drug-susceptible) proliferation in erythrocyte-based infection assay; assay type: functional, organism-based
Plasmodium falciparum [2] = assay: NOVARTIS: Inhibition of Plasmodium falciparum W2 (drug-resistant) proliferation in erythrocyte-based infection assay; assay type: functional, organism-based; settings: read-out: EC50
Huh-7 = assay: (§1) NOVARTIS: Cytotoxicity against human hepatocellular carcinoma cell line (Huh7); assay type: toxicity, cell-based; settings: huh-7, read-out: CC50
[3] = as §1; assay type: toxicity, cell-based, Huh-7; settings: Huh7 cells (hepatocellular carcinoma cell line)

Compound	EC50 (Plasmodium falciparum [1])	EC50 (Plasmodium falciparum [1]; Plasmodium falciparum, 3D7) [nM]	EC50 (Plasmodium falciparum [2])	CC50 (Huh-7)	CC50 [3] [µM]	EC50 (Plasmodium falciparum [2]; Plasmodium falciparum, W2) [nM]
CCN1/C(=C/c2ccc3cc(OC)ccc3[n+]2CC)Sc2cc(C)ccc21	90.7 nM	161	275 nM and 86.2 nM	11.7 µM	19.2	–
Cc1cc(/C=C2\Sc3ccccc3N2C)[n+](C)c2ccccc12	90.6 nM and 39.2 nM	–	80.2 nM	11.5 µM	6.37	94
CCN1/C(=C/c2ccc3ccccc3[n+]2CC)Sc2c1ccc1ccccc21	225 nM and 631 nM and 334 nM	–	682 nM and > 621 nM and 212 nM	7.14 µM	> 10	–
CCN1C(=Cc2sc3ccc(O)cc3[n+]2CC)C=Cc2cc(C)ccc21	188 nM and 376 nM	–	383 nM	> 10 µM	5.79	291
COc1ccc(C=C2SC(Nc3ccc(F)cc3)=NC2=O)c(OC)c1	277 nM	266	532 nM	12 µM	12.2	753
CCN(CC)c1ccc(C=Cc2cc[n+](Cc3ccc(F)cc3)cc2)cc1	417 nM	241	578 nM	> 10 µM	5.29	769
CC[n+]1c(C=CN(C)c2ccccc2)sc2ccc(Cl)cc21	223 nM	156	367 nM	> 10 µM and 23.1 µM	–	352
CCOc1ccc(Br)cc1/C=C1\SC(=Nc2ccccc2CC)N(c2ccccc2CC)C1=O	8330 nM and > 835 nM	–	> 1250 nM and 4860 nM	> 100 µM	–	–
C=CCN1C=CC(=Cc2sc3ccccc3[n+]2C)c2ccccc21	89.7 nM	–	115 nM	14.2 µM	–	–
CC[n+]1c(C=CN(C)c2ccccc2)sc2ccc(OC)cc21.[O-][Cl+3]([O-])([O-])[O-]	–	145	–	> 100 µM	–	255
CCN1/C(=C\C=C\c2n(CC)c3ccc(C#N)cc3[n+]2CC)Oc2ccc(-c3ccccc3)cc21	610 nM	–	1060 nM	> 10 µM	–	–
CCN(CC)c1ccc(C=Cc2cccc[n+]2CC)cc1	88.5 nM	–	131 nM	44.9 µM	–	–
CCCCN1C(=Cc2cccc[n+]2C)Sc2cc(NC(C)=O)ccc21	–	> 1110	> 1250 nM	> 10 µM	–	–
Cc1occc1C(=O)NN=C/C(Cl)=C/c1ccccc1	291 nM	255	116 nM and 392 nM	> 10 µM and 64.3 µM	–	–
CN1/C(=C/c2cccc[n+]2C)C=Cc2ccccc21	557 nM	446	779 nM	> 100 µM	–	526
CCN1/C(=C/C=C/c2oc3ccc(-c4ccccc4)cc3[n+]2CC)Oc2ccc(-c3ccccc3)cc21	–	> 1720	> 569 nM	10.7 µM	> 10	1060
CC[n+]1c(C=CN(C)c2ccccc2)sc2ccc(OC)cc21	–	920	–	> 10 µM	–	400
